In ChEMBL document CHEMBL3879901, “Substituted isoquinolin-1(2H)-ones, and methods of use thereof” (2012):

Tests used:
[1] = target: PI3-kinase p110-delta/p85-alpha (Homo sapiens, UniProt O00329); experiment: Inhibition of N-terminal His6-tagged recombinant full-length human p110delta/untagged recombinant full length p85alpha expressed in baculovirus infected Sf21 cells using phosphatidylinositol as substrate in presence of gamma-32P-ATP after 5 mins by thin layer chromatographic method
[2] = target: PI3-kinase p110-alpha/p85-alpha (Homo sapiens, UniProt P42336); experiment: Inhibition of N-terminal His6-tagged recombinant full-length human p110alpha/untagged recombinant full length human p85alpha expressed in baculovirus infected Sf21 cells using phosphatidylinositol as substrate in presence of gamma-32P-ATP after 5 mins by thin layer chromatographic method
PI3K p110 beta/p85 alpha = PI3K p110 beta/p85 alpha (Homo sapiens, UniProt P42338); experiment: Inhibition of N-terminal His6-tagged recombinant full-length human p110beta/untagged recombinant full length p85alpha expressed in baculovirus infected Sf21 cells using phosphatidylinositol as substrate in presence of gamma-32P-ATP after 5 mins by thin layer chromatographic method
[3] = Antiproliferative activity against Balb/c mouse splenic B cells preincubated for 30 mins followed by LPS or F(ab')2 donkey anti-mouse IgM and recombinant mouse IL4 stimulation measured after 72 hrs by Alamar Blue reduction assay; type: functional, cell-based
[4] = target: Phosphatidylinositol 4,5-bisphosphate 3-kinase catalytic subunit gamma isoform (Homo sapiens, UniProt P48736); experiment: Inhibition of recombinant human C-terminal His6-tagged p110gamma expressed in insect cells using phosphatidylinositol as substrate in presence of gamma-32P-ATP after 5 mins by thin layer chromatographic method
Phosphatidylinositol 4,5-bisphosphate 3-kinase catalytic subunit gamma isoform, sequence (P48736 whole entry, canonical isoform): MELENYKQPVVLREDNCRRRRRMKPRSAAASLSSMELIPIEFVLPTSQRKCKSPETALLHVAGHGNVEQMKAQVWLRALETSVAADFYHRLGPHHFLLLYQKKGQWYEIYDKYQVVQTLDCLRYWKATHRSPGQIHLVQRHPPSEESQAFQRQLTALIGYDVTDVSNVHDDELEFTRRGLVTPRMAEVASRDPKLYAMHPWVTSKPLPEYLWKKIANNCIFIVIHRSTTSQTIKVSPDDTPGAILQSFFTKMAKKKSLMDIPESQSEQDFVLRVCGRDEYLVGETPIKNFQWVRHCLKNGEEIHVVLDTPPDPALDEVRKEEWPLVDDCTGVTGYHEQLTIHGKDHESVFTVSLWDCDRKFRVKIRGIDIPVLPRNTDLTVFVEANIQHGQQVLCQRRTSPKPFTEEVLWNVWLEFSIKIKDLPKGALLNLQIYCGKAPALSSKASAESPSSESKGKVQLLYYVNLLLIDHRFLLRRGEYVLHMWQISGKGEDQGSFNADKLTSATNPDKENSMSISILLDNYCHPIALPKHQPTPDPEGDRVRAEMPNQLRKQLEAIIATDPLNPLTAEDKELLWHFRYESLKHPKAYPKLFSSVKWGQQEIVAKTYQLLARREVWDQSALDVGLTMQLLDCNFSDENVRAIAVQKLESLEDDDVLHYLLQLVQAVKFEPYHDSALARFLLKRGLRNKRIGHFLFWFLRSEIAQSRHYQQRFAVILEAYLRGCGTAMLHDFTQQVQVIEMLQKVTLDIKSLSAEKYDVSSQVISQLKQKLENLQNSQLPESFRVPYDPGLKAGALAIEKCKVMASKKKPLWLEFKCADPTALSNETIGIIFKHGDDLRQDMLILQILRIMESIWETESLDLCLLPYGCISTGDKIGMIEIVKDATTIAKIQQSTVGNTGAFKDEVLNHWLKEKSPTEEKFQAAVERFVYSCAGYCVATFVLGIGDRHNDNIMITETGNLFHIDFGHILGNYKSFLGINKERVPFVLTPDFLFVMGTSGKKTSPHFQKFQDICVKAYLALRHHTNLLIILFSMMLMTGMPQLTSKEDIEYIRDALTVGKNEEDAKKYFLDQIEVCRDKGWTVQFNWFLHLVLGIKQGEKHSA

PI3-kinase p110-delta/p85-alpha, sequence (P27986 whole entry): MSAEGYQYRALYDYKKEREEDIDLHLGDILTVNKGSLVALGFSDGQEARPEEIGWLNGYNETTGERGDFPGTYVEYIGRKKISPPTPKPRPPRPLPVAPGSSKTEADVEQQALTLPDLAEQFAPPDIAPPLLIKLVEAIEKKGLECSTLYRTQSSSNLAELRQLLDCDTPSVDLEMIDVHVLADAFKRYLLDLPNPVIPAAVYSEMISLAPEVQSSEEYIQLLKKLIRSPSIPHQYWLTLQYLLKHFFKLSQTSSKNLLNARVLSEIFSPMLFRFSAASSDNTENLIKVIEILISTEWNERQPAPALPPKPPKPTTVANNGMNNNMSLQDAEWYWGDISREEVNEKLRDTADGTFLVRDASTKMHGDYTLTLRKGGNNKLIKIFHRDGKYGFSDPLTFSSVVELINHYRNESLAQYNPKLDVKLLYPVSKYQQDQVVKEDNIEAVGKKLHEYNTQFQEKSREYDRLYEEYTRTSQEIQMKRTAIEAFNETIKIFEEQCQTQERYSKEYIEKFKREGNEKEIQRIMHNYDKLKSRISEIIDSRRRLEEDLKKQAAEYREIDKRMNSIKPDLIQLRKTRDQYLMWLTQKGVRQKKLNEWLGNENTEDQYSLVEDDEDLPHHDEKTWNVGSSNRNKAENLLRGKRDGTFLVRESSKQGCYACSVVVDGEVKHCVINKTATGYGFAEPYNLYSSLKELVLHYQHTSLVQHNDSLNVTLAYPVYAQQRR
PI3-kinase p110-delta/p85-alpha, sequence (O00329 whole entry): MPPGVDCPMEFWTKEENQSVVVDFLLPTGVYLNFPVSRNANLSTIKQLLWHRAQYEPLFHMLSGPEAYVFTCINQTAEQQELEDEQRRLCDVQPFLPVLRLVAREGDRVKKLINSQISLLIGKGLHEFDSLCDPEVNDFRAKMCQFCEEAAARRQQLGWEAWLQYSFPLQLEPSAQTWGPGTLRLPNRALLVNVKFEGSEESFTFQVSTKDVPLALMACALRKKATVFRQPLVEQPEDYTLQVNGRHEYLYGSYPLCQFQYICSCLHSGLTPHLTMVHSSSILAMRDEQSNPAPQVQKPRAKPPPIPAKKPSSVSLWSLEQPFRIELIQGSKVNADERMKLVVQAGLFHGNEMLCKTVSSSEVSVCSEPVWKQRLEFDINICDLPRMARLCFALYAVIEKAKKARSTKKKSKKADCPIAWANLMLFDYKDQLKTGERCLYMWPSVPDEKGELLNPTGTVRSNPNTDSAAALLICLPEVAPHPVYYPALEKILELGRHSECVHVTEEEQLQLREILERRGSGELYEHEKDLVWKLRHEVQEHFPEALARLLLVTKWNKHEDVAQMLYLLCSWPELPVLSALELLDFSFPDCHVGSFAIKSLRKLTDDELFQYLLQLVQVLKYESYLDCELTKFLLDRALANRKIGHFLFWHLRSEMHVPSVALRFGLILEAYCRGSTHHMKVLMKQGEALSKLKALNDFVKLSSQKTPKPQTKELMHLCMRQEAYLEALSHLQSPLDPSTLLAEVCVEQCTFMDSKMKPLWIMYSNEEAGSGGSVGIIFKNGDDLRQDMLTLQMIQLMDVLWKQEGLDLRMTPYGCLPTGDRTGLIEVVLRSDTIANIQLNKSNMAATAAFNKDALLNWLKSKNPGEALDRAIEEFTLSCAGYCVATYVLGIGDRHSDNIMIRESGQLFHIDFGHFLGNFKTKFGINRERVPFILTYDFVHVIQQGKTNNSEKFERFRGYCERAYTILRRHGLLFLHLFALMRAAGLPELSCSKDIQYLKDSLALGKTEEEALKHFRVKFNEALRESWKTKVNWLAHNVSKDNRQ
PI3-kinase p110-alpha/p85-alpha, sequence (P27986 whole entry): as the sequence (P27986 whole entry) above
PI3-kinase p110-alpha/p85-alpha, sequence (P42336 whole entry): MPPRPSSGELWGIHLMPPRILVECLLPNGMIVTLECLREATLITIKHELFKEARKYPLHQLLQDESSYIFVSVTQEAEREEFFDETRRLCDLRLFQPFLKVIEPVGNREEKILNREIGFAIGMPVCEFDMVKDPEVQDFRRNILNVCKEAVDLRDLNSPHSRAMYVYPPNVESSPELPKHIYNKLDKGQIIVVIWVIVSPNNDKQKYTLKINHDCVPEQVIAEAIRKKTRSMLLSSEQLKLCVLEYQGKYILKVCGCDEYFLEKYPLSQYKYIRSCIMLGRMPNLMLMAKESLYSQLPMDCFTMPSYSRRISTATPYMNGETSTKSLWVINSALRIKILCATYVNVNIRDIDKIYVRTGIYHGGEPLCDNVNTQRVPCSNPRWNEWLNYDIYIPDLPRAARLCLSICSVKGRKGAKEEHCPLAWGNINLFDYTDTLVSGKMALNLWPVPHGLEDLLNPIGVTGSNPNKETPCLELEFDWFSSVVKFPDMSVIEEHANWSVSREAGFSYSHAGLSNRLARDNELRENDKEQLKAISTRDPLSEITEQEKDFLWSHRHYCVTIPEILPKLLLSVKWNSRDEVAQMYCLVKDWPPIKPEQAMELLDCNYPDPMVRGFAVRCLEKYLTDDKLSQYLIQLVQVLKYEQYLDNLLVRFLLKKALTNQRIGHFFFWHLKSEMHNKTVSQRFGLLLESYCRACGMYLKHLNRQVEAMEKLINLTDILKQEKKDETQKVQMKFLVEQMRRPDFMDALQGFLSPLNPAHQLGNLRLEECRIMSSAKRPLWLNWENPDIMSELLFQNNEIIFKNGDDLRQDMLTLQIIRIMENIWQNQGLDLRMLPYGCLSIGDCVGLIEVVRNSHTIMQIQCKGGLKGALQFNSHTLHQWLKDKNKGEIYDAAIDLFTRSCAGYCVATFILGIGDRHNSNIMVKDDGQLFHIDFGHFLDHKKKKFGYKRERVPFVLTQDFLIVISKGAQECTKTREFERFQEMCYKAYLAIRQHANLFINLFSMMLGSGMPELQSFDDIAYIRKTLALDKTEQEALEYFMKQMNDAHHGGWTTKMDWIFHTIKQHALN
PI3K p110 beta/p85 alpha, sequence (P27986 whole entry): as the sequence (P27986 whole entry) above
PI3K p110 beta/p85 alpha, sequence (P42338 whole entry): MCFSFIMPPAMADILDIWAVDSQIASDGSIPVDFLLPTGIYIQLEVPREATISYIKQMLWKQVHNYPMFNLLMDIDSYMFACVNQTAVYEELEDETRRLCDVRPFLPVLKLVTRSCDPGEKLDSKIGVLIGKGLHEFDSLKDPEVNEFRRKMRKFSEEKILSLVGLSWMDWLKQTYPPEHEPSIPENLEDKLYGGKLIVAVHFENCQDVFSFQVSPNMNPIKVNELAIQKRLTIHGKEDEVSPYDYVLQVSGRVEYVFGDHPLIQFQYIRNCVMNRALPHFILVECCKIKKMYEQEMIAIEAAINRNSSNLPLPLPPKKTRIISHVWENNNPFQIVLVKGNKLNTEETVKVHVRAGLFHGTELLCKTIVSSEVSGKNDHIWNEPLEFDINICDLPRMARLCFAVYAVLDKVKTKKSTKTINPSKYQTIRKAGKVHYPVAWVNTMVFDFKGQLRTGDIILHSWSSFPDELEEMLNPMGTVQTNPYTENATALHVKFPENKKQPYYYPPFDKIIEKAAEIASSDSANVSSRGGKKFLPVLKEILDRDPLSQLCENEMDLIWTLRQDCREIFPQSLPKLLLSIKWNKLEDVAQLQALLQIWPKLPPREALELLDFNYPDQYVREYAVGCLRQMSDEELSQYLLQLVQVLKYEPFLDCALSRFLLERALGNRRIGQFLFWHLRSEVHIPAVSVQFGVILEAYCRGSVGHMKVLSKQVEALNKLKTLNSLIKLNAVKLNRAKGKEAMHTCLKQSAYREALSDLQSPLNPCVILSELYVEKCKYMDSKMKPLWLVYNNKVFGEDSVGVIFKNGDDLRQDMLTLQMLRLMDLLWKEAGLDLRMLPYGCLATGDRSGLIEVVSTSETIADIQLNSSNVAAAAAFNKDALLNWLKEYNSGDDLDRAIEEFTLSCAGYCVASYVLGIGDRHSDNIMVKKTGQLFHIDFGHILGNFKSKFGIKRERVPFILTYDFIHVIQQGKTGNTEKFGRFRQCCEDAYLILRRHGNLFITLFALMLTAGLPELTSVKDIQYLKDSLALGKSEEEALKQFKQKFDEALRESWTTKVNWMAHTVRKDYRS

SMILES	IC50 [1] [nM]	IC50 [2] [µM]	IC50 (PI3K p110 beta/p85 alpha) [µM]	IC50 [4] [nM]	EC50 [3] [nM]
Cc1cccc2cc(Cn3nc(-c4cccc(O)c4)c4c(N)ncnc43)n(C3CCC3)c(=O)c12	< 100	> 10	< 10	–	< 1000
Cc1cccnc1-n1c(Cn2nc(-c3cccc(O)c3)c3c(N)ncnc32)cc2ccccc2c1=O	< 1000	–	–	< 10000	–
Cc1cccc2cc(Cn3nc(-c4cccc(O)c4)c4c(N)ncnc43)n(C3CC3)c(=O)c12	< 100	< 1	< 1	–	< 100
Cc1cccc2cc(Cn3nc(-c4cc(O)cc(F)c4)c4c(N)ncnc43)n(-c3ccccc3C(C)C)c(=O)c12	< 100	< 1	< 1	–	< 100
Cc1cccc2cc(Cn3nc(-c4cc(O)cc(F)c4)c4c(N)ncnc43)n(C3CCCC3)c(=O)c12	< 100	< 10	< 10	–	< 100
Cc1cccc2cc(Cn3nc(C#C[C@@H](C)O)c4c(N)ncnc43)n(-c3ccccc3C(C)C)c(=O)c12	< 100	> 10	< 10	–	< 100
Cc1cccc2cc([C@H](C)Nc3ncnc4[nH]cnc34)n(C(C)C)c(=O)c12	–	–	–	< 100	< 100
Cc1cccc2cc(Cn3nc(-c4cc(O)cc(F)c4)c4c(N)ncnc43)n(C3CCCCC3)c(=O)c12	< 100	> 10	< 10	–	< 1000
Cc1cccc2cc(Cn3nc(I)c4c(N)ncnc43)n(-c3ccccc3O)c(=O)c12	< 100	> 10	> 10	–	< 1000
Cc1cccc2cc([C@H](C)Nc3ncnc4[nH]cnc34)n(C3CCC3)c(=O)c12	–	–	–	< 100	< 100
CC(=O)Nc1nc2ccc(-c3nn(Cc4cc5cccc(Cl)c5c(=O)n4C(C)C)c4ncnc(N)c34)cc2s1	< 100	< 100	< 0.1	–	< 100
Cc1cccc2cc(Cn3nc(C#C[C@@H](C)O)c4c(N)ncnc43)n(C3CCCCC3)c(=O)c12	< 100	> 10	> 10	–	< 10000
Cc1cccnc1-n1c(Cn2nc(-c3ccc(F)c(O)c3)c3c(N)ncnc32)cc2cccc(C)c2c1=O	< 100	> 10	> 10	–	< 100

Second part, led by results:

IC50 [1] [nM]	IC50 [2] [µM]	IC50 (PI3K p110 beta/p85 alpha) [µM]	IC50 [4] [nM]	SMILES	EC50 [3] [nM]
< 100	< 10	> 10	–	Cc1ccccc1-n1c(Cn2nc(-c3ccc4ncnc(N)c4c3)c3c(N)ncnc32)cc2cccc(C)c2c1=O	< 1000
< 100	> 10	< 10	–	Cc1ccccc1-n1c(Cn2nc(-c3ccc(Cl)c(O)c3)c3c(N)ncnc32)cc2cccc(C)c2c1=O	< 100
< 100	> 10	< 10	–	Cc1ccccc1-n1c(Cn2nc(-c3ccc(F)c(O)c3)c3c(N)ncnc32)cc2cccc(C)c2c1=O	< 100
< 1000	> 10	> 10	–	COc1cc(-c2nn(Cc3cc4cccc(C)c4c(=O)n3-c3ccccc3C)c3ncnc(N)c23)ccc1Cl	< 1000
< 100	> 10	< 10	–	COc1ccccc1-n1c(Cn2nc(-c3cccc(O)c3)c3c(N)ncnc32)cc2cccc(C)c2c1=O	< 100
< 100	< 1	< 10	–	Cc1ccccc1-n1c(Cn2nc(-c3ccc4nc(N)ccc4c3)c3c(N)ncnc32)cc2cccc(C)c2c1=O	< 100
< 100	> 10	> 10	–	Cc1cccc2cc(Cn3nc(-c4ccc(Cl)c(O)c4)c4c(N)ncnc43)n(-c3ccccc3F)c(=O)c12	< 1000
< 1000	> 10	> 10	–	COc1ccc(-c2nn(Cc3cc4cccc(C)c4c(=O)n3-c3ccccc3C)c3ncnc(N)c23)cc1OC	< 100
–	–	–	100 to 1000	Cc1cccc2cc(Cn3nc(-c4ccc5nc(N)oc5c4)c4c(N)ncnc43)n(-c3ccccc3)c(=O)c12	< 10000
< 100	> 10	< 10	–	Cc1ccccc1-n1c(Cn2nc(-c3ccc(O)c(Cl)c3)c3c(N)ncnc32)cc2cccc(C)c2c1=O	< 1000
< 100	> 10	> 10	–	CCc1ccccc1-n1c(Cn2nc(-c3cccc(O)c3)c3c(N)ncnc32)cc2cccc(C)c2c1=O	< 100
< 100	< 1	< 10	–	CC(=O)Nc1nc2ccc(-c3nn(Cc4cc5cccc(C)c5c(=O)n4-c4ccccc4)c4ncnc(N)c34)cc2s1	< 100
< 100	> 10	< 10	–	Cc1ccccc1-n1c(Cn2nc(-c3cccc(O)c3)c3c(N)ncnc32)cc2cccc(C)c2c1=O	< 100
